In one test the target is T1, hSGLT2 (Homo sapiens, UniProt P31639).
T1 construct: gene SLC5A2; hSGLT2GFP-MAP17nb, in lipid nanodisc; with MAP17
T1 sequence (P31639 1-672): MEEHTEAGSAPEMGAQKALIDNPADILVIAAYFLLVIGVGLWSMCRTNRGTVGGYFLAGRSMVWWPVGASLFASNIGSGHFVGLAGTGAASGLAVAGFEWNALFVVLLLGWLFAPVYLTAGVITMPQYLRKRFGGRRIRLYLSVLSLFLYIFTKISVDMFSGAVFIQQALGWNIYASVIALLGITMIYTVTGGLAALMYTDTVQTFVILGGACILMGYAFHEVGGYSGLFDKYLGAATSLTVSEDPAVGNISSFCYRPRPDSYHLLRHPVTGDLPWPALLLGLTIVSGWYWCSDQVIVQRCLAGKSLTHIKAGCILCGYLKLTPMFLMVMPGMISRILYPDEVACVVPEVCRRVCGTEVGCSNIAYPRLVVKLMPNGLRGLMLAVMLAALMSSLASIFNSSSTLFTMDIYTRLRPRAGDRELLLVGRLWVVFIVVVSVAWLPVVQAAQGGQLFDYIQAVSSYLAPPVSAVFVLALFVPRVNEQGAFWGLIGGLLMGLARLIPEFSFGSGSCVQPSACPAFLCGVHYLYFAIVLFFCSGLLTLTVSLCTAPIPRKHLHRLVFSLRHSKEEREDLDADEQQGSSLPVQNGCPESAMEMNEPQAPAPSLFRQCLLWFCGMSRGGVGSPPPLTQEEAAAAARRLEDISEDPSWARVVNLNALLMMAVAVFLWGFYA
T1 sequence (Q13113 1-114 partner): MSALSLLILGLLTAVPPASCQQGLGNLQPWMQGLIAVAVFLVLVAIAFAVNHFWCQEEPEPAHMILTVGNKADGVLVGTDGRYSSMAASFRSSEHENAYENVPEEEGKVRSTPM
Nature of the test: cryo-EM structure of the complex at […] Å ([…] AMG). Type of test: binding.

A further test has as its target T2, hSGLT1 (Homo sapiens, UniProt P13866).
T2 construct: gene SLC5A1; hSGLT1GFP-MAP17nb (three-joint-tethering construct), in lipid nanodisc; with MAP17
T2 sequence (P13866 1-664): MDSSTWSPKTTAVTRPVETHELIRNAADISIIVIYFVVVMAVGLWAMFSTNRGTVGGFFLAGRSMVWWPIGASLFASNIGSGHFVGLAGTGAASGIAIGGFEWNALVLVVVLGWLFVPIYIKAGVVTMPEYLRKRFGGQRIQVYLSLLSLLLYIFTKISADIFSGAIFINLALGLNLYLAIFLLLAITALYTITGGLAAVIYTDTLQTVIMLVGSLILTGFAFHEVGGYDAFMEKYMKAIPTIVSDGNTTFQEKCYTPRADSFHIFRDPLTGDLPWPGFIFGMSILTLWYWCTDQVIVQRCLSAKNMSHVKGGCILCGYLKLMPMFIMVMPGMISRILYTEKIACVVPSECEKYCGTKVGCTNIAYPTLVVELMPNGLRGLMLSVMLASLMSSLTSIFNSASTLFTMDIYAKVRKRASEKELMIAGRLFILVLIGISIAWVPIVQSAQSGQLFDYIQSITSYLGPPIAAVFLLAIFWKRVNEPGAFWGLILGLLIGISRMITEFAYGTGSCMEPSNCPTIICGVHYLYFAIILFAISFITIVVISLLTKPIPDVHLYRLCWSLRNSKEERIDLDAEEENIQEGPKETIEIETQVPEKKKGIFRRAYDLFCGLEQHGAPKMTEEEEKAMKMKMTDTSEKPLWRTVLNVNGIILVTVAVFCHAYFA
T2 sequence (Q13113 1-114 partner): T1 sequence (Q13113 1-114 partner)
Nature of the test: cryo-EM structure of the complex at […] Å; IC50 from inhibition of […]-NBD-glucose uptake in cells. Type of test: cell-based.

Experimental findings from publication PMC10203128, “Structures of human SGLT in the occluded state reveal conformational changes during sugar transport” (Nature Communications, 2023) are described below.

For orientation: IC50 means the concentration that gives 50% inhibition.

Turning to `CO[C@H]1O[C@H](CO)C(O)[C@H](O)[C@H]1O` (stereo in doubt) [AMG, methyl alpha-D-galactopyranoside], the “cryo-EM structure of the complex at 3.33 Å (100 mM AMG)” value on hSGLT2 is “We observed that AMG is bound in an occluded substrate-binding site”.
For the compound `OC[C@H]1OC(O)[C@H](O)[C@@H](O)[C@@H]1F` (stereo partly drawn) [4D4FDG, 4-deoxy-4-fluoro-D-glucose], the 50% inhibitory concentration (IC50) at hSGLT1 was roughly 70 µM.
